Measurements reported in ChEMBL document CHEMBL3885861, “Open TG-GATES”.

Species on record: Rattus norvegicus
Assay: Open TG-GATES - Regimen: Daily Repeat
Format: toxicity, organism-based, Sprague-Dawley
Parameters: regimen Daily Repeat, gender Male, age 6 weeks
Conditions: in vivo, po, 300 mg/kg, route gavage, dose level High; for Bas / Eos / Fbg / Hb / Ht / Lym / MCH / MCV / Mono / Neu / PT / Plat / RBC / Ret / WBC / APTT: tissue Blood; for KIDNEY_L / KIDNEY_R / KIDNEY_TOTAL: tissue Kidney; for LIVER: tissue Liver; for ALP / ALT / AST / BUN / CRE / Ca / Cl / DBIL / GLC / IP / K / LDH / Na / PL / RALB / TBIL / TC / TP / gamma-GTP: tissue Plasma

NC(=O)N1c2ccccc2C=Cc2ccccc21 [CARBAMAZEPINE]
Bas (72 h, time 3 day): 0% | Eos (72 h, time 3 day): 1.2% | Fbg (72 h, time 3 day): 203 mg/dL | Hb (72 h, time 3 day): 13.7 g/dL | Ht (72 h, time 3 day): 40.1% | Lym (72 h, time 3 day): 83.6% | MCH (72 h, time 3 day): 20.9 pg | MCV (72 h, time 3 day): 61 fL | Mono (72 h, time 3 day): 2.6% | Neu (72 h, time 3 day): 11.4% | PT (72 h, time 3 day): 11.8 s | Plat (72 h, time 3 day): 131.3 x10_4/uL | RBC (72 h, time 3 day): 657.8 x10_4/ul | Ret (72 h, time 3 day): 3.6% | WBC (72 h, time 3 day): 92.4 x10_2/uL | KIDNEY_L (72 h, time 3 day): 1.1 g | KIDNEY_R (72 h, time 3 day): 1 g | KIDNEY_TOTAL (72 h, time 3 day): 2.1 g | LIVER (72 h, time 3 day): 13.1 g | ALP (72 h, time 3 day): 978.4 IU/L | ALT (72 h, time 3 day): 40.2 IU/L | AST (72 h, time 3 day): 57.2 IU/L | BUN (72 h, time 3 day): 14 mg/dL | CRE (72 h, time 3 day): 0.4 mg/dL | Ca (72 h, time 3 day): 10.9 mg/dL | Cl (72 h, time 3 day): 103.2 meq/L | DBIL (72 h, time 3 day): 0.08 mg/dL | GLC (72 h, time 3 day): 199.4 mg/dL | IP (72 h, time 3 day): 6.8 mg/dL | K (72 h, time 3 day): 3.4 meq/L | LDH (72 h, time 3 day): 217.4 IU/L | Na (72 h, time 3 day): 140.6 meq/L | PL (72 h, time 3 day): 150.4 mg/dL | RALB (72 h, time 3 day): 3.4 g/dL | TBIL (72 h, time 3 day): 0.1 mg/dL | TC (72 h, time 3 day): 79.2 mg/dL | TP (72 h, time 3 day): 5.6 g/dL | gamma-GTP (72 h, time 3 day): 1.2 IU/L | TERMINAL_BW ([…], time 7 day): 253.9 g | TERMINAL_BW ([…], time 14 day): 309.3 g | TERMINAL_BW ([…], time 28 day): 374.6 g | APTT ([…], time 7 day): 21.5 s | Bas ([…], time 7 day): 0% | Eos ([…], time 7 day): 0.6% | Fbg ([…], time 7 day): 224.6 mg/dL | Hb ([…], time 7 day): 13.1 g/dL | Ht ([…], time 7 day): 38.8% | Lym ([…], time 7 day): 79.8% | MCH ([…], time 7 day): 20.5 pg | MCV ([…], time 7 day): 60.5 fL | Mono ([…], time 7 day): 2.4% | Neu ([…], time 7 day): 15.8% | PT ([…], time 7 day): 11.9 s | Plat ([…], time 7 day): 130.9 x10_4/uL | RBC ([…], time 7 day): 641.2 x10_4/ul | Ret ([…], time 7 day): 4.1% | WBC ([…], time 7 day): 127.4 x10_2/uL | APTT ([…], time 14 day): 22.3 s | Bas ([…], time 14 day): 0% | Eos ([…], time 14 day): 0.4% | Fbg ([…], time 14 day): 209.2 mg/dL | Hb ([…], time 14 day): 14.2 g/dL | Ht ([…], time 14 day): 41.2% | Lym ([…], time 14 day): 82.2% | MCH ([…], time 14 day): 20.6 pg | MCV ([…], time 14 day): 59.8 fL | Mono ([…], time 14 day): 2.4% | Neu ([…], time 14 day): 13.6% | PT ([…], time 14 day): 12.2 s | Plat ([…], time 14 day): 128.7 x10_4/uL | RBC ([…], time 14 day): 689.4 x10_4/ul | Ret ([…], time 14 day): 4.7% | WBC ([…], time 14 day): 149.2 x10_2/uL | APTT ([…], time 28 day): 22.9 s | Bas ([…], time 28 day): 0% | Eos ([…], time 28 day): 1% | Fbg ([…], time 28 day): 225.4 mg/dL | Hb ([…], time 28 day): 15.2 g/dL | Ht ([…], time 28 day): 43.4% | Lym ([…], time 28 day): 87.2% | MCH ([…], time 28 day): 19.6 pg | MCV ([…], time 28 day): 56 fL | Mono ([…], time 28 day): 2.2% | Neu ([…], time 28 day): 8.8% | PT ([…], time 28 day): 12.2 s | Plat ([…], time 28 day): 106.2 x10_4/uL | RBC ([…], time 28 day): 776.2 x10_4/ul | Ret ([…], time 28 day): 2.1% | WBC ([…], time 28 day): 142.7 x10_2/uL | KIDNEY_L ([…], time 7 day): 1.2 g | KIDNEY_R ([…], time 7 day): 1.1 g | KIDNEY_TOTAL ([…], time 7 day): 2.3 g | KIDNEY_L ([…], time 14 day): 1.3 g | KIDNEY_R ([…], time 14 day): 1.3 g | KIDNEY_TOTAL ([…], time 14 day): 2.7 g | KIDNEY_L ([…], time 28 day): 1.4 g | KIDNEY_R ([…], time 28 day): 1.4 g | KIDNEY_TOTAL ([…], time 28 day): 2.8 g | LIVER ([…], time 7 day): 14.2 g | LIVER ([…], time 14 day): 17.8 g | LIVER ([…], time 28 day): 19.5 g | ALP ([…], time 7 day): 803.4 IU/L | ALT ([…], time 7 day): 41.6 IU/L | AST ([…], time 7 day): 64.8 IU/L | BUN ([…], time 7 day): 15.4 mg/dL | CRE ([…], time 7 day): 0.4 mg/dL | Ca ([…], time 7 day): 10.7 mg/dL | Cl ([…], time 7 day): 101.8 meq/L | DBIL ([…], time 7 day): 0.098 mg/dL | GLC ([…], time 7 day): 212.6 mg/dL | IP ([…], time 7 day): 7 mg/dL | K ([…], time 7 day): 3.9 meq/L | LDH ([…], time 7 day): 261.2 IU/L | Na ([…], time 7 day): 139.6 meq/L | PL ([…], time 7 day): 174.4 mg/dL | RALB ([…], time 7 day): 3.6 g/dL | TBIL ([…], time 7 day): 0.1 mg/dL | TC ([…], time 7 day): 91.2 mg/dL | TP ([…], time 7 day): 6.1 g/dL | gamma-GTP ([…], time 7 day): 1.4 IU/L | ALP ([…], time 14 day): 774.4 IU/L | ALT ([…], time 14 day): 38.6 IU/L | AST ([…], time 14 day): 62.8 IU/L | BUN ([…], time 14 day): 17.5 mg/dL | CRE ([…], time 14 day): 0.5 mg/dL | Ca ([…], time 14 day): 11 mg/dL | Cl ([…], time 14 day): 101 meq/L | DBIL ([…], time 14 day): 0.1 mg/dL | GLC ([…], time 14 day): 193.4 mg/dL | IP ([…], time 14 day): 7.2 mg/dL | K ([…], time 14 day): 3.9 meq/L | LDH ([…], time 14 day): 192 IU/L | Na ([…], time 14 day): 140.8 meq/L | PL ([…], time 14 day): 170.4 mg/dL | RALB ([…], time 14 day): 3.5 g/dL | TBIL ([…], time 14 day): 0.2 mg/dL | TC ([…], time 14 day): 89 mg/dL | TP ([…], time 14 day): 6.4 g/dL | gamma-GTP ([…], time 14 day): 0.6 IU/L | ALP ([…], time 28 day): 555 IU/L | ALT ([…], time 28 day): 39.8 IU/L | AST ([…], time 28 day): 55 IU/L | BUN ([…], time 28 day): 20.4 mg/dL | CRE ([…], time 28 day): 0.5 mg/dL | Ca ([…], time 28 day): 10.6 mg/dL | Cl ([…], time 28 day): 101.4 meq/L | DBIL ([…], time 28 day): 0.09 mg/dL | GLC ([…], time 28 day): 226 mg/dL | IP ([…], time 28 day): 6.4 mg/dL | K ([…], time 28 day): 3.6 meq/L | LDH ([…], time 28 day): 218.2 IU/L | Na ([…], time 28 day): 140.6 meq/L | PL ([…], time 28 day): 180.8 mg/dL | RALB ([…], time 28 day): 3.7 g/dL | TBIL ([…], time 28 day): 0.1 mg/dL | TC ([…], time 28 day): 93.8 mg/dL | TP ([…], time 28 day): 6.5 g/dL | gamma-GTP ([…], time 28 day): 1.2 IU/L
